Data on nine molecules can be found in patent US12157730B2, “Heteroaryl derivative, method for producing same, and pharmaceutical composition comprising same as effective component” (VORONOI INC., priority 2019, dated 2024).

The assay has as its target T1, Ba/F3 cell EGFR Exon20 ins NPH (Homo sapiens, UniProt P00533, INS773NPH).
T1 construct: expressed in transfected cells; host or cells: Ba/F3
As to the kind of experiment: Ba/F3 cell proliferation suppression, EGFR Exon20 ins NPH. Conditions: GI50 class; Ba/F3 cell line with NPH inserted at Exon20 of EGFR; 72 hours. Type of assay: cell-based. The procedure, abridged:
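72 h compound exposure, 0.3 nM–50 um (12 points, 3:1 dilution in DMSO); viability by CellTiter-Glo luminescence. Ba/F3 medium: RPMI-1640, 10% FBS, 5 ng/ml IL-3, 1 ug/ml puromycin for transduced cells. GI50 vs control, n=3.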

On to `C=CC(=O)Nc1cc(Nc2cc(N3OCC[C@@H]3c3cccc(C(F)(F)F)c3)ncn2)c(OC)cc1N1CCC(N2CCN(C3CC3)CC2)CC1` [Example 148, N-(2-(4-(4-cyclopropylpiperazine-1-yl)piperidine-1-yl)-4-methoxy-5-((6-((R)-3-(3-(trifluoromethyl)phenyl)isoxazolidine-2-yl)pyrimidine-4-yl)amino)phenyl)acrylamide], for which the “Ba/F3 (NPH) Activity” value was “A (GI50 < 50 nM)”.
In the case of `C=CC(=O)Nc1cc(Nc2cc(N3OCC[C@@H]3c3cccc(Cl)c3Cl)ncn2)c(OC)cc1N1CCN(CCN(C)C)CC1` [compound 566, N-(5-((6-((R)-3-(2,3-dichlorophenyl)isoxazolidine-2-yl)pyrimidine-4-yl)amino)-2-(4-(2-(dimethylamino)ethyl)piperazine-1-yl)-4-methoxyphenyl) acrylamide] it was “B (50 nM ≤ GI50 < 500 nM)”; in that of `C=CC(=O)Nc1cc(Nc2cc(N3OCC[C@@H]3c3ccc(F)c(F)c3)ncn2)c(OC)cc1N1CCC(N2CCC(N(C)C)CC2)CC1` [compound 546, N-(5-((6-((R)-3-(3,4-difluorophenyl)isoxazolidine-2-yl)pyrimidine-4-yl)amino)-2-(4-(dimethylamino)-[1,4'-bipiperidine]-1'-yl)-4-methoxyphenyl) acrylamide], “A (GI50 < 50 nM)”.
The same measure for `C=CCN1CCN(C2CCN(c3cc(OC)c(Nc4cc(N5OCC[C@@H]5c5cccc(OC)c5)ncn4)cc3NC(=O)C=C)CC2)CC1` [Example 215, N-(2-(4-(4-allylpiperazine-1-yl)piperidine-1-yl)-4-methoxy-5-((6-((R)-3-(3-methoxyphenyl)isoxazolidine-2-yl)pyrimidine-4-yl)amino)phenyl) acrylamide]: “C (500 nM ≤ GI50 < 5000 nM)”.
`C=CC(=O)Nc1cc(Nc2cc(N3OCC[C@@H]3c3ccc(F)cc3F)ncn2)c(OC)cc1N1CCN(C)CC1` [compound 326, N-(5-((6-((R)-3-(2,4-difluorophenyl)isoxazolidine-2-yl)pyrimidine-4-yl)amino)-4-methoxy-2-(4-methylpiperazine-1-yl)phenyl)acrylamide]: the “Ba/F3 (NPH) Activity” value is recorded as “A (GI50 < 50 nM)”.
Turning to `C=CC(=O)Nc1cc(Nc2cc(N3OCC[C@@H]3c3cc(F)ccc3F)ncn2)c(OC)cc1N1CCC(N2CCN(C3CC3)CC2)CC1` [Example 61, N-(2-(4-(4-cyclopropylpiperazine-1-yl)piperidine-1-yl)-5-((6-((R)-3-(2,5-difluorophenyl)isoxazolidine-2-yl)pyrimidine-4-yl)amino)-4-methoxyphenyl) acrylamide;], the “Ba/F3 (NPH) Activity” value is on record as “A (GI50 < 50 nM)”.
The same measure for `C=CC(=O)Nc1cc(Nc2cc(N3OCC[C@@H]3Cc3cccc(F)c3C)ncn2)c(OC)cc1N1CC[C@@H](N(C)C)C1` [compound 1002, N-(2-((R)-3-(dimethylamino)pyrolidine-1-yl)-5-((6-((S)-3-(3-fluoro-2-methylbenzyl)isoxazolidine-2-yl)pyrimidine-4-yl)amino)-4-methoxyphenyl) acrylamide]: “A (GI50 < 50 nM)”; for `C=CC(=O)Nc1cc(Nc2cc(N3OCC[C@@H]3c3ccccc3)ncn2)c(OC)cc1N1C2CC1CN(C)C2` [Example 35, N-(4-methoxy-2-(3-methyl-3,6-diazabicyclo[3.1.1]heptane-6-yl)-5-((6-((R)-3-phenylisoxazolidine-2-yl)pyrimidine-4-yl)amino)phenyl) acrylamide]: “B (50 nM ≤ GI50 < 500 nM)”.
In the case of `C=CC(=O)Nc1cc(Nc2cc(N3OCC[C@@H]3c3cccc(F)c3F)ncn2)c(OC)cc1N1C[C@H]2CCN(C)[C@H]2C1` [compound 875, N-(5-((6-((R)-3-(2,3-difluorophenyl)isoxazolidine-2-yl)pyrimidine-4-yl)amino)-4-methoxy-2-((3aR,6aR)-1-methylhexahydropyrrolo [3,4-b]pyrrole-5(1H)-yl)phenyl) acrylamide] it was “A (GI50 < 50 nM)”.
